# Test results published in US11840686B2, “Modulation of prekallikrein (PKK) expression” (Ionis Pharmaceuticals, Inc., priority 2013, dated 2023).
# Strand notation (5' to 3'): a small letter for the sugar, then the base; units joined by * are phosphorothioate-linked, units joined directly phosphodiester-linked; [ ] holds rarer units or linkages, { } end groups; capitals alone tell only the bases. e = 2'-O-(2-methoxyethyl) (MOE); [5mC] = 5-methylcytosine; d = 2'-deoxy (DNA)
# How the values were obtained:
# human PKK mRNA [1] = experiment: Antisense inhibition of human PKK mRNA in HepaRG cells, 5,000 nM (Example 2); type: cell-based
# How it was run: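 Chimeric MOE gapmers with full phosphorothioate backbones were tested once at 5,000 nM in electroporated HepaRG cells. After about 24 hours, quantitative PCR measured PKK mRNA relative to untreated control cells.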
# human PKK mRNA [2] = experiment: Dose-dependent antisense inhibition of human PKK in HepaRG cells, 0.19-5.00 uM (Example 5); type: cell-based; conditions: HepaRG cells; for percent inhibition of PKK at 0.19 μM / percent inhibition of PKK at 0.56 μM / percent inhibition of PKK at 1.67 μM / percent inhibition of PKK at 5.00 μM: electroporation, approximately 16 hours; for percent inhibition of PKK mRNA, 0.19 μM: 0.19 μM antisense oligonucleotide; for percent inhibition of PKK mRNA, 0.56 μM: 0.56 μM antisense oligonucleotide; for percent inhibition of PKK mRNA, 1.67 μM: 1.67 μM antisense oligonucleotide; for percent inhibition of PKK mRNA, 5.00 μM: 5.00 μM antisense oligonucleotide
# How it was run: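 PKK mRNA knockdown was measured by real-time PCR (primer probe set RTS3454) about 16 h after electroporating 20,000 HepaRG cells per well with oligonucleotide at four doses from 0.19 to 5.00 μM. Levels were adjusted to RIBOGREEN-measured total RNA, and IC50 values were calculated.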
# [3] = 4 point dose response, Table 35
# [4] = HepaRG cells, electroporation with 5,000 nM antisense oligonucleotide, approximately 24 hours, PKK mRNA by RT-PCR (RTS3454), relative to untreated control cells, Table 6 experiment
# [5] = 4 point dose response, Table 39
substance,measurement,setting,value
546916 (e[5mC]*eG*eT*e[5mC]*eA*d[5mC]*dT*dG*dT*dA*d[5mC]*d[5mC]*dT*dA*dT*eA*eA*e[5mC]*eT*eG; antisense) [compound 546916],% inhibition,"human PKK mRNA [1]; HepaRG cells, 5,000 nM antisense oligonucleotide, 5-10-5 gapmers, Table 16",92%
same,percent inhibition of PKK at 0.19 μM,human PKK mRNA [2]; Table 35,43%
same,percent inhibition of PKK at 0.56 μM,human PKK mRNA [2]; Table 35,71%
same,percent inhibition of PKK at 1.67 μM,human PKK mRNA [2]; Table 35,79%
same,percent inhibition of PKK at 5.00 μM,human PKK mRNA [2]; Table 35,89%
same,IC50,human PKK mRNA [2]; [3],200 nM
same,"percent inhibition of PKK mRNA, 0.19 μM",human PKK mRNA [2],0%
same,"percent inhibition of PKK mRNA, 0.56 μM",human PKK mRNA [2],27%
same,"percent inhibition of PKK mRNA, 1.67 μM",human PKK mRNA [2],73%
same,"percent inhibition of PKK mRNA, 5.00 μM",human PKK mRNA [2],97%
same,IC50,human PKK mRNA [2]; 0.19-5.00 μM,1000 nM
546410 (eG*eA*e[5mC]*eT*eT*dT*dG*dG*dG*dT*dT*dT*d[5mC]*dT*dG*e[5mC]*e[5mC]*eA*eA*e[5mC]; antisense) [compound 546410],% inhibition,"human PKK mRNA [1]; HepaRG cells, electroporation, 5,000 nM antisense oligonucleotide, approx. 24 hours, primer probe set RTS3454, relative to untreated control cells, Table 12",83%
same,percent inhibition of PKK at 0.19 μM,human PKK mRNA [2]; Table 38,13%
same,percent inhibition of PKK at 0.56 μM,human PKK mRNA [2]; Table 38,43%
same,percent inhibition of PKK at 1.67 μM,human PKK mRNA [2]; Table 38,52%
same,percent inhibition of PKK at 5.00 μM,human PKK mRNA [2]; Table 38,75%
same,IC50,"human PKK mRNA [2]; 4 point dose response, Table 38",1200 nM
546190 (antisense e[5mC]*eT*e[5mC]*eT*e[5mC]*dA*dT*dA*dT*d[5mC]*dA*dA*d[5mC]*dT*d[5mC]*e[5mC]*eT*eT*eT*eA) [compound 546190],% inhibition,human PKK mRNA [1]; [4],92%
same,percent inhibition of PKK at 0.19 μM,human PKK mRNA [2]; Table 35,33%
same,percent inhibition of PKK at 0.56 μM,human PKK mRNA [2]; Table 35,65%
same,percent inhibition of PKK at 1.67 μM,human PKK mRNA [2]; Table 35,86%
same,IC50,human PKK mRNA [2]; [3],400 nM
same,"percent inhibition of PKK mRNA, 0.19 μM",human PKK mRNA [2],21%
same,"percent inhibition of PKK mRNA, 0.56 μM",human PKK mRNA [2],34%
same,"percent inhibition of PKK mRNA, 1.67 μM",human PKK mRNA [2],76%
same,"percent inhibition of PKK mRNA, 5.00 μM",human PKK mRNA [2],98%
same,IC50,human PKK mRNA [2]; 0.19-5.00 μM,700 nM
546872 (e[5mC]*eA*e[5mC]*eT*eG*dT*dA*d[5mC]*d[5mC]*dT*dA*dT*dA*dA*d[5mC]*eT*e[5mC]*eT*eA*eA; antisense) [compound 546872],% inhibition,"human PKK mRNA [1]; human PKK mRNA in HepaRG cells, 5-10-5 gapmers, Table 14",87%
same,percent inhibition of PKK at 0.19 μM,human PKK mRNA [2]; Table 39,32%
same,percent inhibition of PKK at 0.56 μM,human PKK mRNA [2]; Table 39,33%
same,percent inhibition of PKK at 1.67 μM,human PKK mRNA [2]; Table 39,82%
same,percent inhibition of PKK at 5.00 μM,human PKK mRNA [2]; Table 39,94%
same,IC50,human PKK mRNA [2]; [5],400 nM
same,"percent inhibition of PKK mRNA, 0.19 μM",human PKK mRNA [2],42%
same,"percent inhibition of PKK mRNA, 0.56 μM",human PKK mRNA [2],13%
same,"percent inhibition of PKK mRNA, 1.67 μM",human PKK mRNA [2],59%
same,"percent inhibition of PKK mRNA, 5.00 μM",human PKK mRNA [2],99%
same,IC50,human PKK mRNA [2]; 0.19-5.00 μM,1400 nM
547341 (antisense eG*eA*e[5mC]*eT*e[5mC]*d[5mC]*dT*d[5mC]*dT*d[5mC]*dA*dT*dA*dT*d[5mC]*eA*eA*e[5mC]*eT*e[5mC]) [compound 547341],% inhibition,human PKK mRNA [1]; [4],87%
same,percent inhibition of PKK at 0.19 μM,human PKK mRNA [2]; Table 39,36%
same,percent inhibition of PKK at 0.56 μM,human PKK mRNA [2]; Table 39,58%
same,percent inhibition of PKK at 1.67 μM,human PKK mRNA [2]; Table 39,91%
same,percent inhibition of PKK at 5.00 μM,human PKK mRNA [2]; Table 39,95%
same,IC50,human PKK mRNA [2]; [5],300 nM
same,"percent inhibition of PKK mRNA, 0.19 μM",human PKK mRNA [2],45%
same,"percent inhibition of PKK mRNA, 0.56 μM",human PKK mRNA [2],44%
same,"percent inhibition of PKK mRNA, 1.67 μM",human PKK mRNA [2],81%
same,"percent inhibition of PKK mRNA, 5.00 μM",human PKK mRNA [2],95%
same,IC50,human PKK mRNA [2]; 0.19-5.00 μM,600 nM
547275 (antisense eT*eT*eG*eG*eA*dG*dG*dT*dG*dA*dG*dT*d[5mC]*dT*d[5mC]*eT*eT*eG*eT*e[5mC]) [compound 547275],% inhibition,"human PKK mRNA [1]; HepaRG cells, electroporation with 5,000 nM antisense oligonucleotide, approximately 24 hours, PKK mRNA by RT-PCR (RTS3454), relative to untreated control cells, Table 5 experiment",87%
same,percent inhibition of PKK at 0.19 μM,human PKK mRNA [2]; Table 39,34%
same,percent inhibition of PKK at 0.56 μM,human PKK mRNA [2]; Table 39,66%
same,percent inhibition of PKK at 1.67 μM,human PKK mRNA [2]; Table 39,82%
same,percent inhibition of PKK at 5.00 μM,human PKK mRNA [2]; Table 39,95%
same,IC50,human PKK mRNA [2]; [5],300 nM
same,"percent inhibition of PKK mRNA, 0.19 μM",human PKK mRNA [2],56%
same,"percent inhibition of PKK mRNA, 0.56 μM",human PKK mRNA [2],16%
same,"percent inhibition of PKK mRNA, 1.67 μM",human PKK mRNA [2],80%
same,"percent inhibition of PKK mRNA, 5.00 μM",human PKK mRNA [2],86%
same,IC50,human PKK mRNA [2]; 0.19-5.00 μM,1200 nM
547009 (eA*eA*eT*eT*eG*dG*dT*dG*dG*dT*dG*dG*dG*dA*dT*eT*eG*eG*eT*eG; antisense) [compound 547009],% inhibition,"human PKK mRNA [1]; HepaRG cells, 5,000 nM antisense oligonucleotide, 5-10-5 gapmers, Table 17",73%
same,percent inhibition of PKK at 0.19 μM,human PKK mRNA [2]; Table 40,0%
same,percent inhibition of PKK at 0.56 μM,human PKK mRNA [2]; Table 40,9%
same,percent inhibition of PKK at 1.67 μM,human PKK mRNA [2]; Table 40,21%
same,percent inhibition of PKK at 5.00 μM,human PKK mRNA [2]; Table 40,63%
same,IC50,"human PKK mRNA [2]; 4 point dose response, Table 40",3600 nM
